In experiment [1] the test system is Staphylococcus aureus. In words: Antibacterial activity against Staphylococcus aureus ATCC 29213 assessed as inhibition of bacterial growth at 100 microg/ml. The note with it: dose 100.0 µg/ml. The format is functional, organism-based.
In the next experiment the test system is Candida albicans. Kind of experiment: Antifungal activity against Candida albicans ATCC 14053 assessed as inhibition of bacterial growth at 100 microg/ml. The format is functional, organism-based. Conditions: dose 100.0 µg/ml.
Experiment [2] deals with Mycobacterium tuberculosis. In words: Antimycobacterial activity against Mycobacterium tuberculosis H37Ra ATCC 25177 assessed as inhibition of bacterial growth at 100 microg/ml. The format is functional, organism-based. The note with it: dose 100.0 µg/ml.
The next experiment relates to Pseudomonas aeruginosa. In words: Antibacterial activity against Pseudomonas aeruginosa ATCC 10145 assessed as inhibition of bacterial growth at 100 microg/ml. The note with it: dose 100.0 µg/ml. The experiment is classed as functional, organism-based.
A further experiment has as its system SMMC-7721. In words: Cytotoxicity against human SMMC-7721 cells assessed as inhibition of cell growth incubated for 68 hrs by MTT assay. The format is functional, cell-based. The note with it: SMMC-7721, 68 h. Background: Tetrazolium assays rely on reduction of a dye to a coloured formazan, in cell work by metabolically active cells.
For experiment [3], the system named is Staphylococcus aureus. In words: Antibacterial activity against Staphylococcus aureus ATCC 29213 assessed as inhibition of bacterial growth. The experiment is classed as functional, organism-based.
In experiment [4] the test system is Mycobacterium tuberculosis. Kind of experiment: Antimycobacterial activity against Mycobacterium tuberculosis H37Ra ATCC 25177 assessed as inhibition of bacterial growth. The experiment is classed as functional, organism-based.

The structures appear in SMILES notation. In brackets after ≈: the same amount, converted by molar mass. Activity calls are given as the source filed them. The rule behind the calls is not given here.

Usually IC50 stands for the midpoint of a concentration-inhibition curve.

As for `CC1(C)C[C@@H]2[C@@]3(CO)C=C[C@@H](O)[C@@]3(C)CC[C@]21O`, the result (in the experiment on Staphylococcus aureus [1]; with Candida albicans; in experiment [2]; in the experiment on Pseudomonas aeruginosa) was inactive.

With `CC1(C)C[C@@H]2/C(CO)=C\C=C/[C@@](C)(O)CC[C@]21O`, the result (with Staphylococcus aureus [1]; in the experiment on Candida albicans; in experiment [2]; in the experiment with Pseudomonas aeruginosa) was inactive.

As to `COc1cc([C@@H]2c3cc4c(cc3[C@@H](O[C@@H]3O[C@@H]5CO[C@@H](C)O[C@H]5[C@H](O)[C@H]3O)[C@H]3COC(=O)[C@H]23)OCO4)cc(OC)c1O` [ETOPOSIDE], the IC50 in the experiment on SMMC-7721 came out at 23.2 µM.

On to `C/C1=C/[C@@H](OC(=O)CCC(=O)O)/C=C(/C=O)[C@H]2CC(C)(C)[C@]2(O)CC1`, for which the IC50 in the experiment with Staphylococcus aureus [3] stood at 83 µg/mL (≈ 237 µM); in experiment [4], 36.8 µg/mL (≈ 105 µM).

For the compound `CO[C@H]1[C@@H]2[C@@H](O)O[C@]3([C@H](OC(C)=O)C/C(C)=C\[C@@H]1OC)[C@H]2CC3(C)C`, the IC50 with SMMC-7721 was found to be 28.3 µM.

The record behind these values is ChEMBL document CHEMBL5360582, “Caryophyllene Sesquiterpenes from a Chaetomium globosum Endophyte of the Canadian Medicinal Plant Empetrum nigrum” (J Nat Prod, 2023).
